Data as given in patent publication US9642819B2, “Low dosage serotonin 5-HT2A receptor agonist to suppress inflammation” (BOARD OF SUPERVISORS OF LOUISIANA STATE UNIVERSITY AND …, priority 2008, dated 2017).

Assays:
IL-6 expression = assay: TNF-α induced IL-6 expression in rat primary aortic endothelial cells; assay type: cell-based; conditions: 10 pM, 60 minutes prior to TNF-alpha 10 ng/ml
Protocol: (§1) Experiments were conducted to analyze for the effect of 5-HT2A receptor activation on proinflammatory marker expression in other cell types. Human neuroblastoma cells (SHSY5Y) and rat glioma cells (C6) can be obtained from the American Type Culture Collection (Manassas, Va.), but were provided Purdue University. The cells were grown in DMEM+10% FBS. DMEM was made and provided by the Cell and Molecular Core of the Mentoring in Cardiovascular Biology COBRE center at LSUHSC-NO. FBS was purchased from Invitrogen (Carlsbad, Calif.). Primary rat aortic endothelial cells were prepared fresh and provided by the Cell and Molecular Core of the Mentoring in Cardiovascular Biology COBRE center at LSUHSC-NO. Cells were tested at passages 3-4. Cells were grown in endothelial cell growth medium (Cell Applications, Inc.). Primary rat bronchoaveolar macrophage cells were obtained by lung lavage from rats and used at day 3 or 4 post plating in DMEM+10% FBS.
(§2) All treatments with 5-HT2A receptor agonists occurred 1 hour prior to the addition of TNF-alpha (10 ng/ml) or LPS (100 ng or 1 mg) depending on the experiment. All RNA isolations, cDNA synthesis, QPCR gene expression assays examining ICAM1, VCAM1, and IL6, and data analysis were performed as described above in Example 1, except the primers were different for the human cell experiment. […]

ICAM-1 gene expression = assay: TNF-α induced ICAM-1 gene expression in rat C6 glioma cells; assay type: cell-based; conditions: 1 nM and 50 nM prior to TNF-α
Protocol: as §1, §2

[1] = system: nuclear translocation of p65; assay: Nuclear translocation of NF-κB subunit p65 in RASM cells; assay type: cell-based, rat; conditions: 1 nM, 24 hours or one hour before or together with TNF-α 10 ng/ml
Protocol: Nuclear Translocation of p65. RASM cells were grown in M-199 medium+10% FBS until 50% confluent in 8 well chamber slides. Cells were treated with 1 nM (R)-DOI for various times as indicated, and TNF-α (10 ng/ml; tumor necrosis factor alpha) added. Thirty minutes after TNF-α treatment, cells were fixed and processed with rabbit anti p65 primary and Alexafluor 488-conjugated goat secondary antibodies as described in Zerfaoui et al. (2008) (Zerfaoui et al., 2008). Fluorescent signal was visualized on a Leica DMRA2 fluorescent microscope.
Both ICAM-1 and VCAM-1 gene transcription during inflammatory processes is regulated by the transcription factor NF-κB (Collins et al., 1995). During this process, NF-κB must be activated, and then translocated from the cytoplasm to the nucleus, where it promotes gene transcription. To investigate whether 5-HT2A receptor stimulated inhibition of NF-κB activation and translocation might be a possible mechanism for blockade of proinflammatory gene expression changes, a series of immunohistochemical experiments were conducted examining p65 translocation in RASM cells. TNF-α treatment for 30 minutes caused the expected dramatic shift in localization of the p65 subunit of NF-κB from the cytoplasm to the nucleus (FIG. 7A). […]

[2] = system: Nitric Oxide Synthetase (NOS) activity; assay: NOS activity: nitrite levels in culture medium of RASM cells after TNF-α; assay type: cell-based, rat; conditions: 1 nM pretreatment for 24 hours, TNF-α 10 ng/ml 24 hours
Protocol: Nitric Oxide Synthetase (NOS) Activity. NOS activity was determined by detection of nitrite levels in the cell culture medium following (R)-DOI/TNF-α treatments utilizing the Nitrate Detection kit from Assay Designs (Ann Arbor, Mich.) following the manufacturers protocols. Absorbances were detected at 539 nm on a […] SpectraMax M2 plate reader.
A key participant in inflammatory processes is NOS activity (Guzik et al., 2003). NOS activity can regulate NF-kB activation (Ckless et al., 2007), and cytokine pathway-activated NF-kB can transcriptionally regulate iNOS gene expression (Guo et al., 2007). To examine the effects of 5-HT2A receptor activation on this component of inflammatory mechanisms, primary RASM cells were used to examine the ability of 1 nM (R)-DOI to block TNF-α mediated increases in nitrite levels.
As an indicator of NOS activity, nitrite levels were measured in the cell culture media after treatments and are shown in FIG. 6 as % control. […] Pretreatment with 1 nM (R)-DOI for 24 hours blocked TNF-α mediated increases in nitrite accumulation (DOI+T).

VCAM-1 gene expression = assay: TNF-α induced VCAM-1 gene expression in rat primary aortic endothelial cells; assay type: cell-based; conditions: 10 pM, 60 minutes prior to TNF-alpha 10 ng/ml
Protocol: as §1, §2

COc1cc(C[C@@H](C)N)c(OC)cc1I [(R)-DOI, (R)-1-(2,5-dimethoxy-4-iodophenyl)-2-aminopropane]
effect on TNF-α-induced IL-6 expression in aortic endothelial cells (IL-6 expression): potently inhibited | effect on ICAM-1 gene expression in rat glioma cells (ICAM-1 gene expression): blocked | effect on TNF-α induced p65 nuclear translocation [1]: completely blocked | effect on TNF-α mediated increases in nitrite accumulation [2]: blocked | effect on TNF-alpha induced increase in VCAM-1 gene expression in aortic endothelial cells (VCAM-1 gene expression): less potent
